# Source: ChEMBL document CHEMBL1137642, “Growth and drug resistance phenotypes resulting from cytomegalovirus DNA polymerase region III mutations observed in clinical specimens” (Antimicrob Agents Chemother, 2007)
# Legend:
# Human betaherpesvirus 5 [1] = experiment: Antiviral activity against Cytomegalovirus CMV T2211 infected in HFF cells by SEAP reporter gene assay; assay type: functional, organism-based; settings: Human betaherpesvirus 5, T2211, HFF
# Human betaherpesvirus 5 [2] = experiment: Antiviral activity against Cytomegalovirus CMV T2258 with UL97 C592G mutant infected in HFF cells by SEAP reporter gene assay; assay type: functional, organism-based; settings: Human betaherpesvirus 5, T2258, HFF
# Human betaherpesvirus 5 [3] = experiment: Antiviral activity against Cytomegalovirus CMV T2417 with pol A809V mutant infected in HFF cells by SEAP reporter gene assay; assay type: functional, organism-based; settings: Human betaherpesvirus 5, T2417, HFF
# Human betaherpesvirus 5 [4] = experiment: Antiviral activity against Cytomegalovirus CMV T2784 with pol A809V UL97 C592G double mutant infected in HFF cells by SEAP reporter gene assay; assay type: functional, organism-based; settings: Human betaherpesvirus 5, T2784, HFF
# Human betaherpesvirus 5 [5] = experiment: Antiviral activity against Cytomegalovirus CMV T2542 with pol T813S mutant infected in HFF cells by SEAP reporter gene assay; assay type: functional, organism-based; settings: Human betaherpesvirus 5, T2542, HFF
# Human betaherpesvirus 5 [6] = experiment: Antiviral activity against Cytomegalovirus CMV T2798 with pol T813S UL97 C592G double mutant infected in HFF cells by SEAP reporter gene assay; assay type: functional, organism-based; settings: Human betaherpesvirus 5, T2798, HFF
# Human betaherpesvirus 5 [7] = experiment: Antiviral activity against Cytomegalovirus CMV T2420 with pol G841A mutant infected in HFF cells by SEAP reporter gene assay; assay type: functional, organism-based; settings: Human betaherpesvirus 5, T2420, HFF
# Human betaherpesvirus 5 [8] = experiment: Antiviral activity against Cytomegalovirus CMV 2817 with pol G841A UL97 C592G double mutant infected in HFF cells by SEAP reporter gene assay; assay type: functional, organism-based; settings: Human betaherpesvirus 5, T2817, HFF
# Human betaherpesvirus 5 [9] = experiment: Drug resistance, ratio of EC50 for Cytomegalovirus CMV pol A384P mutant to EC50 for Cytomegalovirus CMV T2211 by SEAP reporter gene assay; assay type: functional
# Human betaherpesvirus 5 [10] = experiment: Drug resistance, ratio of EC50 for Cytomegalovirus CMV T2784 with pol A809V UL97 C592G double mutant to EC50 for Cytomegalovirus CMV T2211 by SEAP reporter gene assay; assay type: functional
# Human betaherpesvirus 5 [11] = experiment: Drug resistance, ratio of EC50 for Cytomegalovirus CMV T2798 with pol T813S UL97 C592G double mutant to EC50 for Cytomegalovirus CMV T2211 by SEAP reporter gene assay; assay type: functional
# Human betaherpesvirus 5 [12] = experiment: Drug resistance, ratio of EC50 for Cytomegalovirus CMV T2817 with pol G841A UL97 C592G double mutant to EC50 for Cytomegalovirus CMV T2211 by SEAP reporter gene assay; assay type: functional
# Human betaherpesvirus 5 [13] = experiment: Drug resistance, ratio of EC50 for Cytomegalovirus CMV pol T821I mutant to EC50 for Cytomegalovirus CMV T2211 by SEAP reporter gene assay; assay type: functional
# Human betaherpesvirus 5 [14] = experiment: Drug resistance, ratio of EC50 for Cytomegalovirus CMV T2417 pol A809V mutant to EC50 for Cytomegalovirus CMV T2211 by plaque reduction assay; assay type: functional
# Human betaherpesvirus 5 [15] = experiment: Drug resistance, ratio of EC50 for Cytomegalovirus CMV T2420 pol G841A mutant to EC50 for Cytomegalovirus CMV T2211 by SEAP reporter gene assay; assay type: functional
# Human betaherpesvirus 5 [16] = experiment: Drug resistance, ratio of EC50 for Cytomegalovirus CMV […] pol T813S mutant to EC50 for Cytomegalovirus CMV T2211 by SEAP reporter gene assay; assay type: functional
# Human betaherpesvirus 5 [17] = experiment: Drug resistance, ratio of EC50 for Cytomegalovirus CMV T2417 pol A809V mutant to EC50 for Cytomegalovirus CMV T2211 by SEAP reporter gene assay; assay type: functional
SMILES,EC50 (Human betaherpesvirus 5 [1]),EC50 (Human betaherpesvirus 5 [2]),EC50 (Human betaherpesvirus 5 [3]),EC50 (Human betaherpesvirus 5 [4]),EC50 (Human betaherpesvirus 5 [5]),EC50 (Human betaherpesvirus 5 [6]),EC50 (Human betaherpesvirus 5 [7]),EC50 (Human betaherpesvirus 5 [8]),fold change (FC) (Human betaherpesvirus 5 [9]),fold change (FC) (Human betaherpesvirus 5 [10]),fold change (FC) (Human betaherpesvirus 5 [11]),fold change (FC) (Human betaherpesvirus 5 [12]),fold change (FC) (Human betaherpesvirus 5 [13]),fold change (FC) (Human betaherpesvirus 5 [14]),fold change (FC) (Human betaherpesvirus 5 [15]),fold change (FC) (Human betaherpesvirus 5 [16]),fold change (FC) (Human betaherpesvirus 5 [17])
Nc1nc2c(ncn2COC(CO)CO)c(=O)[nH]1 [GANCICLOVIR],1.1 µM,3.9 µM,2.6 µM,6.1 µM,2.7 µM,6.6 µM,3.5 µM,8.4 µM,5,2,2,2,5,2.6,,,
O=C(O)P(=O)(O)O [FOSCARNET],41 µM,44 µM,137 µM,137 µM,199 µM,204 µM,176 µM,213 µM,,,,,,6.3,3,3,3
Nc1ccn(C[C@@H](CO)OCP(=O)(O)O)c(=O)n1.O.O [CIDOFOVIR],0.22 µM,0.27 µM,0.42 µM,0.45 µM,0.6 µM,0.37 µM,0.58 µM,0.67 µM,,,,,,1.6,,,
